Test results taken from US8377934B2, “Use of stilbene derivatives for treatment and prevention of aquatic mold infections” (State of Israel, Ministry of Agriculture & Rural …, priority 2006, dated 2013).
Values after ≈ are worked out from the molar mass of the structure shown.

Experiments:
S. parasitica T-1 = assay: Agar-dilution susceptibility testing (filamentous hyphae); assay type: cell-based, Saprolegnia parasitica; settings: 24 h
Experimental: (§1) Two methods were used, each suitable for a different phase of the asexual life cycle of Saprolegnia spp.: i) the broth macrodilution method, for determination of susceptibility of zoospores and cysts; and ii) the agar-dilution method for determination of susceptibility of filamentous hyphae. Each compound was tested three times in each method. Malachite Green was used as positive control.
Twofold serial dilutions were prepared in double distillated sterile water with final drug concentrations ranging from 10,000 to 0.01 mg/L in a final volume of 1.0 ml. […] The mixture was vortexed, and poured into small plates. After agar solidification a small measured piece, taken from a 7-10 day old culture of S. parasitica T-1 on GP-PS medium was placed upside down on each plate. The plates were incubated at room temperature (15-20° C.) for 24 h.

S. parasitica CBS 540.67 = assay: as above; assay type: cell-based, Saprolegnia parasitica
S. parasitica = assay: In vitro susceptibility of S. parasitica in Table 4; assay type: cell-based, Saprolegnia parasitica
Experimental: The in vitro susceptibility of Saprolegnia parasitica T-1 and S. parasitica CBS 540.67 to various compounds was determined by the agar-dilution and broth macrodilution methods.
as §1
This method is a modification of the method used for molds according to EUCAST 7.1 (European Committee on Antibiotic Susceptibility Testing) and CLSI/NCCLS M27-A2 (Clinical Laboratory Standards Institute/National Committee for Clinical Laboratory Standards). For inoculum preparation, S. parasitica isolates were cultured on GP-PS for 7 days with sterile clover seeds at 18° C. Clover seeds (˜20) covered with mycelium were removed and added to 40 ml of RPMI-1640 broth medium (Sigma; prepared according to NCCLS instructions) and incubated at 18° C. for 4-7 days. Cysts and zoospores free from hyphae were collected, and an inoculum of ˜10^3 CFU/ml as measured by hemacytometer counting, was prepared in RPMI. Fluorescent Brightener 28 stock solution was prepared by adding 40% KOH gradually to a 10 mg/ml solution in water, until it was clear, then it was filtered twice through a 0.2 μm cellulose acetate nonpyrogenic sterile filter (Schleicher & Schuell, Dassel, Germany).
Twofold serial dilutions of the resulting stock solutions were set in RPMI-1640 medium in a volume of 0.1 ml. Final drug concentrations in the test tubes ranged from 1×10^4 to 0.01 mg/L. Inoculum of 0.9 ml was added to each of a sterile tube containing 0.1 ml of the serially diluted drug. Two tubes containing drug-free medium and two tubes containing drug-free inoculum were used as controls. The inoculated tubes were incubated at room temperature (15-20° C.) for 24 h. The growth in each tube was then evaluated visually.
This method is a modification of the method presented by Bailey (Bailey, T. A. (1983) Prog. Fish Cult. 45:24-27), and was used for the susceptibility testing of Saprolegnia hyphae. Twofold serial dilutions were prepared in double distillated sterile water with final drug concentrations ranging from 10,000 to 0.01 mg/L in a final volume of 1.0 ml. Melted (56° C.) RPMI-1640 agar medium (Sigma) was prepared according to NCCLS instructions, and then added to each tube containing drug or water control. The mixture was vortexed, and poured into small plates. After agar solidification a small measured piece, taken from a 7-10 day old culture of S. parasitica T-1 on GP-PS medium was placed upside down on each plate. The plates were incubated at room temperature (15-20° C.) for 24 h.

tilapia = assay: in vivo; settings: for LC50: tilapia, mortality up to 96 h
Experimental: LC50 values were determined by static short-term tests as a measure of the relative acute lethal toxicity for tilapia (Standard methods for the evaluation of water and wastewater (1985) 16th ed. American Public Health Association, Washington, D.C. p. 689-819).
Hybrid tilapia (Oreochromis niloticus X Oreochromis aureus) having an average weight of 20 g, were kept in 100 liter polyethylene tanks at a density of 1 fish per 10 liters, at a constant temperature of 21° C. for three weeks before the initiation of the experiment by addition of a test compound to each tank. […] For the latter experiments, fish were acclimated to the required temperature for three weeks prior to addition of the test compound to the tank. Fish were treated with 5 different concentrations of each test compound, determined according to the MIC values of each compound.
Mortality of fish was recorded up to 96 h. Water parameters (O2, NH4^+, NO2^−, pH and Cl^−) were monitored throughout the experiment and were maintained within acceptable limits. The presented results are the mean of two separate experiments.

SMILES | MIC, Agar-dilution (S. parasitica T-1; S. parasitica T-1, 15-20° C., geometric mean of three tests) [µg/mL] | MIC, Agar-dilution (S. parasitica CBS 540.67; S. parasitica CBS 540.67, 24 h, 15-20° C., geometric mean of three tests) [µg/mL] | Activity in vitro (MIC), grade (S. parasitica; Table 4 summary) | Activity in vitro (MIC), value (S. parasitica; Table 4 summary) | Toxicity (tilapia; Table 4 summary) | LC50 (tilapia; 15° C.) | LC50 (tilapia; 18° C.) | LC50 (tilapia; 25° C.) | MIC (S. parasitica T-1; Saprolegnia parasitica, read-out: MIC, Agar-dilution) [µg/mL] | MIC (S. parasitica CBS 540.67; Saprolegnia parasitica, CBS540, 24 h, read-out: MIC, Agar-dilution) [µg/mL] | MIC (S. parasitica; Saprolegnia parasitica, read-out: Activity in vitro (MIC), value) [µg/mL] | Toxicity (tilapia; in vivo)
O=S(=O)([O-])c1cc(Nc2nc(Nc3ccccc3)nc(N(CCO)CCO)n2)ccc1C=Cc1ccc(Nc2nc(Nc3ccccc3)nc(N(CCO)CCO)n2)cc1S(=O)(=O)[O-].[K+].[Na+] [Blankophor® BA] | 200 | 200 | Moderate | (100 mg/L) | Low (low = >1000 ppm) | >2,000 mg/L | >2,000 mg/L | >2,000 mg/L | – | – | – | –
C=O [Formaldehyde] | – | – | – | – | – | – | – | – | 100 (≈ 3.33 mM) | 100 (≈ 3.33 mM) | 100 (≈ 3.33 mM) | Moderate (key: High: high = 50 ppm; Moderate: moderate = 50-200 ppm; Low: low = >1000 ppm)
